The record followed here is patent publication US20240393292A1, “ALLERGY ANTIGEN AND EPITOPE THEREOF” (HOYU CO., LTD., priority 2019, published 2024).

The subject of this assay is IgE antibodies from patients. Description: Wheat epitope mapping (2): overlapping 10-amino-acid peptide fragments shifted by one amino acid.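 For Rank of partial sequence as epitope binding to IgE antibody: key = sequence deemed particularly important within the common 15-residue sequence.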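 For epitope sequence binding to IgE antibody, rank (Key/Preferably/More preferably): key of grades: preferably = shorter partial sequence still acting as epitope; more preferably = sequence improving IgE binding; key = particularly important sequence.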 The class given is binding, human. In outline: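 Cellulose-bound 10-mer peptides offset by one residue were probed with patient serum IgE and detected by chemiluminescence. Secondary-antibody-only signals were subtracted per peptide. Residual binding was expressed as % of the parent overlapping peptide, scored as none (<30%), poor (30–<50%), somewhat poor (50–<70%) or retained (≥70%).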

Setting [1] is: serum of patient P31 (WDEIA), sequence without X.
The mark [2] stands for this setting: serum of patient P14 (WDEIA), sequence without X.
[3] abbreviates: serum of patient P25 (WDEIA), partial sequence.

“1591 (QPFPQTQQP; REGION 1..9: note = epitope) [compound 1591]”: for the setting “serum of patient P50 (child, general immediate type allergy to wheat), sequence without X”, the “Rank of partial sequence as epitope binding to IgE antibody” value (“Rank of partial sequence” below) is recorded as “Key”.

For “1886 (TVRTLQRT; REGION 1..8: note = epitope) [compound 1886]”, the “epitope sequence binding to IgE antibody, rank (Key/Preferably/More preferably)” value (serum of patient P36 (WDEIA)) was “Key”. Consider “2552 (QLVQQLCC; REGION 1..8: note = epitope) [compound 2552]”, for which the “Epitope sequence binding to IgE antibody, rank of the sequence” value (serum of patient P7 (WDEIA), partial sequence) was “Preferably”.

“1628 (YNPDKVP; REGION 1..7: note = epitope) [compound 1628]”: the “Rank of partial sequence” value (serum of patient P27 (WDEIA), sequence without X) was “Preferably”. With “2679 (YKGPTL; REGION 1..6: note = epitope) [compound 2679]”, the “Epitope sequence binding to IgE antibody, rank of the sequence” value (serum of patient P14 (WDEIA), partial sequence) was “Key”. As to “1527 (QVPLVQQQQ; REGION 1..9: note = epitope) [compound 1527]”, the “Rank of partial sequence” value (serum of patient P12 (WDEIA), sequence without X) is reported as “More preferably”.

With “1791 (PKFL; REGION 1..4: note = epitope) [compound 1791]”, where the note is “serum of patient P3 (WDEIA)”, the “epitope sequence binding to IgE antibody, rank (Key/Preferably/More preferably)” value is recorded as “Key”. For “2502 (SSQVSFQPSQ; REGION 1..10: note = epitope) [compound 2502]”, the “Epitope sequence binding to IgE antibody, rank of the sequence” value (serum of patient P15 (WDEIA), partial sequence) was “Preferably”.

For “1509 (QVPLVQQ; REGION 1..7: note = epitope) [compound 1509]”, the “Rank of partial sequence” value (serum of patient P3 (WDEIA), sequence without X) is reported as “Preferably”. In the case of “2672 (RFEKEAAEMN; REGION 1..10: note = epitope) [compound 2672]”, the “Epitope sequence binding to IgE antibody, rank of the sequence” value (serum of patient G7 (adult, general immediate type allergy to wheat), partial sequence) is “Key”.

“1845 (YTVRTLQR; REGION 1..8: note = epitope) [compound 1845]”: the “epitope sequence binding to IgE antibody, rank (Key/Preferably/More preferably)” value (serum of patient P12 (WDEIA)) is “Preferably”. As to “2239 (NYRVAI; REGION 1..6: note = epitope) [compound 2239]”, under setting [1], the “Epitope sequence binding to IgE antibody, rank of the sequence (Key/Preferably/More preferably)” value is “Key”. Consider “2605 (QLVQ; REGION 1..4: note = epitope) [compound 2605]”, for which the “Epitope sequence binding to IgE antibody, rank of the sequence” value (serum of patient G3 (adult, general immediate type allergy to wheat), partial sequence) is “Key”. Take “1424 (SQQQA; REGION 1..5: note = epitope) [compound 1424]”: the “Epitope sequence binding to IgE antibody, rank of the sequence” value (serum of patient P10 (WDEIA), sequence without X) is “Key”. With “2257 (SRLLRGIRN; REGION 1..9: note = epitope) [compound 2257]”, the “Epitope sequence binding to IgE antibody, rank of the sequence (Key/Preferably/More preferably)” value (serum of patient P55 (child, general immediate type allergy to wheat), sequence without X) was “Key”.

For the substance “1688 (KEAA; REGION 1..4: note = epitope) [compound 1688]”, under setting [2], the “Rank of partial sequence” value was “Key”.

For the substance “1580 (QPFPQTQQPQ; REGION 1..10: note = epitope) [compound 1580]”, the “Rank of partial sequence” value (serum of patient P20 (WDEIA), sequence without X) is listed as “Further preferably”. On to “1816 (LEALPKFL; REGION 1..8: note = epitope) [compound 1816]”, for which, where the note is “serum of patient P30 (WDEIA)”, the “epitope sequence binding to IgE antibody, rank (Key/Preferably/More preferably)” value is “Key”. As to “1852 (YTVRTLQRT; REGION 1..9: note = epitope) [compound 1852]”, the “epitope sequence binding to IgE antibody, rank (Key/Preferably/More preferably)” value (serum of patient P17 (WDEIA)) was “More preferably”.

For “1436 (LQPQQP; REGION 1..6: note = epitope) [compound 1436]”, the “Rank of partial sequence” value (serum of patient P16 (WDEIA), sequence without X) is recorded as “Key”. “1246 (PQQPP; REGION 1..5: note = epitope) [compound 1246]”: the “Epitope sequence binding to IgE antibody, rank of the sequence” value under setting [1] is reported as “Key”. Turning to “2231 (IRNY; REGION 1..4: note = epitope) [compound 2231]”, the “Epitope sequence binding to IgE antibody, rank of the sequence (Key/Preferably/More preferably)” value (serum of patient P28 (WDEIA), sequence without X) is recorded as “Key”. For “1494 (YLQPQQPISQ; REGION 1..10: note = epitope) [compound 1494]”, for the setting “serum of patient G6 (adult, general immediate type allergy to wheat), sequence without X”, the “Rank of partial sequence” value is reported as “Preferably”.

With “1234 (PQQPP; REGION 1..5: note = epitope) [compound 1234]”, the “Epitope sequence binding to IgE antibody, rank of the sequence” value under setting [2] is reported as “Key”. “2566 (YQLVQQLCC; REGION 1..9: note = epitope) [compound 2566]”: the “Epitope sequence binding to IgE antibody, rank of the sequence” value under setting [3] was “Key”. Still for that read-out and setting: the result for “2565 (QSTYQLVQ; REGION 1..8: note = epitope) [compound 2565]” reads “Key”.
